Earlier results on one compound are cited in patent US8541025B2, “Co-crystals and pharmaceutical formulations comprising the same” (Vertex Pharmaceuticals Incorporated, priority 2008, dated 2013).

As a reminder, the pKi is the Ki on a negative log10 scale, so that one unit is a factor of ten.

pKi: −log10 of the molar value. Like-named read-outs stand apart in the source and are kept apart here.

The target of this series is hepatitis C virus ("HCV") NS3/4A protease (Hepatitis C virus genotype 1a, UniProt P27958).
hepatitis C virus ("HCV") NS3/4A protease, sequence (P27958 1027-1657): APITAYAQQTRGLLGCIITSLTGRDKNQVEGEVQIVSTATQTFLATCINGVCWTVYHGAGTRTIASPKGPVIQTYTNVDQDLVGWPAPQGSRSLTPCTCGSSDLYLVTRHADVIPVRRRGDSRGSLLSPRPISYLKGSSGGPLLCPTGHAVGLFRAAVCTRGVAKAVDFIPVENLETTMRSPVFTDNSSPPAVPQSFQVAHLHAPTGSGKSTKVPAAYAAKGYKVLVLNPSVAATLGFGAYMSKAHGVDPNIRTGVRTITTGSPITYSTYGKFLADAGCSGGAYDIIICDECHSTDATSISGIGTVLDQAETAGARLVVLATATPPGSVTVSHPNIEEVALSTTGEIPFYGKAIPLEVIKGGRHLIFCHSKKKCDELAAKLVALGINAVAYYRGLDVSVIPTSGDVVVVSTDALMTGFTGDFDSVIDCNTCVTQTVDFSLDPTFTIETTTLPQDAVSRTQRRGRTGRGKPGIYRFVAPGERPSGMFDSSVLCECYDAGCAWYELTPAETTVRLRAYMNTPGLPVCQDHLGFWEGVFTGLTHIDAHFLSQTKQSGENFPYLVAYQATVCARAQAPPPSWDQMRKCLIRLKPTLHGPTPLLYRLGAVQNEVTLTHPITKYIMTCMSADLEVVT
hepatitis C virus ("HCV") NS3/4A protease, sequence (P27958 1658-1711): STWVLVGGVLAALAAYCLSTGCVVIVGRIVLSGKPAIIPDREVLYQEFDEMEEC

`CC[C@H](NC(=O)[C@@H]1[C@H]2CCC[C@H]2CN1C(=O)[C@@H](NC(=O)C(NC(=O)c1cnccn1)C1CCCCC1)C(C)(C)C)C(=O)C(=O)NC1CC1` (some centres unmarked) [VX-950]: the pKi is, setting by setting: (competitive, reversible inhibitor, read-out: steady state binding constant (ki*)) 8.52; (read-out: Ki) 8.10.
